System: GNS166 cells
Assay: Label-free proteomics differential expression
Format: cell-based, human
Experimental: Proteomic studies were performed by the Proteomics Facility of the CIC bioGUNE by label-free relative quantification on nLC MS/MS. […] In both approaches, the top 20 enriched terms were plotted and the pathways were clustered using divisive hierarchical clustering based on pairwise Jaccard distances.

C#CCN(Cc1cc2cc(OCCCN3CCCCC3)ccc2n1S(=O)(=O)c1ccccc1)C(=O)CCCCCCC(=O)NO [DDI]
LogFC STAU1_HUMAN (protein O95793): -0.5064
LogFC BPNT1_HUMAN (protein O95861 GN=BPNT1): 0.8709
Direction MBD3_HUMAN (protein O95983): Down
LogFC MBD3_HUMAN (protein O95983): -1.39
Direction ZBED1_HUMAN (protein O96006): Down
LogFC ZBED1_HUMAN (protein O96006): -1.855
Direction NSD2_HUMAN (protein O96028): Down
LogFC NSD2_HUMAN (protein O96028): -2.1573
LogFC TPC2B_HUMAN (protein P0DI82 GN=TRAPPC2B): 1.676
LogFC HS71A_HUMAN (protein P0DMV8 GN=HSPA1A): 0.6446
LogFC AL1A1_HUMAN (protein P00352 GN=ALDH1A1): 1.798
Direction EGFR_HUMAN (protein P00533): Down
LogFC EGFR_HUMAN (protein P00533): -0.977
LogFC TPA_HUMAN (protein P00750 GN=PLAT): 1.254
LogFC CAH2_HUMAN (protein P00918 GN=CA2): 2.905
LogFC LDLR_HUMAN (protein P01130 GN=LDLR): -1.436
LogFC TFR1_HUMAN (protein P02786 GN=TFRC): 0.6801
LogFC TRFE_HUMAN (protein P02787 GN=TF): 1.471
LogFC FRIL_HUMAN (protein P02792 GN=FTL): 2.1013
LogFC GLCM_HUMAN (protein P04062 GN=GBA): 1.34
Direction ANXA1_HUMAN (protein P04083): Down
LogFC ANXA1_HUMAN (protein P04083): -0.1864
LogFC OAT_HUMAN (protein P04181 GN=OAT): 0.8669
LogFC TBB4A_HUMAN (protein P04350 GN=TUBB4A): 2.022
LogFC AT1B1_HUMAN (protein P05026 GN=ATP1B1): 0.7382
LogFC CHLE_HUMAN (protein P06276 GN=BCHE): 1.793
LogFC GELS_HUMAN (protein P06396 GN=GSN): 1.338
Direction CDK1_HUMAN (protein P06493): Down
LogFC CDK1_HUMAN (protein P06493): -2.828
LogFC H10_HUMAN (protein P07305 GN=H1-0): 2.4177
Direction CAN1_HUMAN (protein P07384): Down
LogFC CAN1_HUMAN (protein P07384): -0.5477
LogFC HEXB_HUMAN (protein P07686 GN=HEXB): 2.1461
LogFC TNR16_HUMAN (protein P08138 GN=NGFR): 4.357
LogFC ASNS_HUMAN (protein P08243 GN=ASNS): 0.9749
LogFC ANXA5_HUMAN (protein P08758 GN=ANXA5): 0.5383
Direction SRP19_HUMAN (protein P09132): Down
LogFC SRP19_HUMAN (protein P09132): -0.7201
Direction HMGB1_HUMAN (protein P09429): Down
LogFC HMGB1_HUMAN (protein P09429): -0.3836
LogFC SPRC_HUMAN (protein P09486 GN=SPARC): 0.9159
Direction DPOLA_HUMAN (protein P09884): Down
LogFC DPOLA_HUMAN (protein P09884): -0.7754
LogFC TZAP_HUMAN (protein P10074 GN=ZBTB48): 0.6846
LogFC LYAG_HUMAN (protein P10253 GN=GAA): 1.719
LogFC RRAS_HUMAN (protein P10301 GN=RRAS): 1.8337
Direction COT1_HUMAN (protein P10589): Down
LogFC COT1_HUMAN (protein P10589): -2.0511
LogFC PPGB_HUMAN (protein P10619 GN=CTSA): 1.238
LogFC LAMC1_HUMAN (protein P11047 GN=LAMC1): 1.296
LogFC MTAP2_HUMAN (protein P11137 GN=MAP2): 1.918
Direction GTR1_HUMAN (protein P11166): Down
LogFC GTR1_HUMAN (protein P11166): -1.063
LogFC GTR3_HUMAN (protein P11169 GN=SLC2A3): 0.7017
Direction PYGM_HUMAN (protein P11217): Down
LogFC PYGM_HUMAN (protein P11217): -1.18
LogFC LAMP1_HUMAN (protein P11279 GN=LAMP1): 0.9125
Direction TOP2A_HUMAN (protein P11388): Down
LogFC TOP2A_HUMAN (protein P11388): -2.075
LogFC G6PD_HUMAN (protein P11413 GN=G6PD): 0.8016
LogFC PRPS2_HUMAN (protein P11908 GN=PRPS2): 1.0339
Direction COBA1_HUMAN (protein P12107): Down
LogFC COBA1_HUMAN (protein P12107): -0.989
Direction CO6A1_HUMAN (protein P12109): Down
LogFC CO6A1_HUMAN (protein P12109): -2.398
LogFC LAMP2_HUMAN (protein P13473 GN=LAMP2): 0.7741
LogFC MTDC_HUMAN (protein P13995 GN=MTHFD2): 1.415
LogFC CBPM_HUMAN (protein P14384 GN=CPM): 1.371
Direction CCNB1_HUMAN (protein P14635): Down
LogFC CCNB1_HUMAN (protein P14635): -2.713
LogFC ARSA_HUMAN (protein P15289 GN=ARSA): 0.8733
LogFC NQO2_HUMAN (protein P16083 GN=NQO2): 1.439
Direction ITB4_HUMAN (protein P16144): Down
LogFC ITB4_HUMAN (protein P16144): -1.613
LogFC CBR1_HUMAN (protein P16152 GN=CBR1): 1.143
Direction ANK1_HUMAN (protein P16157): Down
LogFC ANK1_HUMAN (protein P16157): -1.996
Direction GCFC2_HUMAN (protein P16383): Down
LogFC GCFC2_HUMAN (protein P16383): -2.09
LogFC SYN1_HUMAN (protein P17600 GN=SYN1): 2.1979
Direction CAN2_HUMAN (protein P17655): Down
LogFC CAN2_HUMAN (protein P17655): -0.5036
LogFC DDX5_HUMAN (protein P17844 GN=DDX5): -0.6799
Direction PFKAL_HUMAN (protein P17858): Down
LogFC PFKAL_HUMAN (protein P17858): -0.5357
Direction ITB5_HUMAN (protein P18084): Down
LogFC ITB5_HUMAN (protein P18084): -1.897
Direction SDC1_HUMAN (protein P18827): Down
LogFC SDC1_HUMAN (protein P18827): -2.102
Direction PLCG1_HUMAN (protein P19174): Down
LogFC PLCG1_HUMAN (protein P19174): -1.036
LogFC RXRA_HUMAN (protein P19793 GN=RXRA): -2.086
Direction MX1_HUMAN (protein P20591): Down
LogFC MX1_HUMAN (protein P20591): -3.492
LogFC FILA_HUMAN (protein P20930 GN=FLG): 2.48
Direction RASA1_HUMAN (protein P20936): Down
LogFC RASA1_HUMAN (protein P20936): -0.7321
LogFC VATB2_HUMAN (protein P21281 GN=ATP6V1B2): 1.09
LogFC VATC1_HUMAN (protein P21283 GN=ATP6V1C1): 0.7781
LogFC AOFA_HUMAN (protein P21397 GN=MAOA): 0.8861
LogFC ACOC_HUMAN (protein P21399 GN=ACO1): 0.9989
LogFC TGM2_HUMAN (protein P21980 GN=TGM2): 2.278
Direction PTPRE_HUMAN (protein P23469): Down
LogFC PTPRE_HUMAN (protein P23469): -2.558
Direction RIR1_HUMAN (protein P23921): Down
LogFC RIR1_HUMAN (protein P23921): -1.151
Direction MCM3_HUMAN (protein P25205): Down
LogFC MCM3_HUMAN (protein P25205): -0.4173
LogFC MOES_HUMAN (protein P26038 GN=MSN): -0.6643
Direction DNMT1_HUMAN (protein P26358): Down
LogFC DNMT1_HUMAN (protein P26358): -0.8972
Direction HMGB2_HUMAN (protein P26583): Down
LogFC HMGB2_HUMAN (protein P26583): -0.4752
Direction SYVC_HUMAN (protein P26640): Down
LogFC SYVC_HUMAN (protein P26640): -0.2125

Source: publication PMC11971462, “Generation and validation of a novel multitarget small molecule in glioblastoma” (Cell Death & Disease, 2025)
